Data: patent publication US7741445B2, “Breast cancer resistance protein (BCRP) antibodies” (University of Maryland, Baltimore, priority 1998, dated 2010)
“Also recorded” adds a separate entry of the source.

How the values were obtained:
[1] = system: MCF-7/AdrVp cells; conditions: MCF-7/AdrVp vs MCF-7; cited from earlier work
[2] = system: BCRP-overexpressing clones 6 and 8 (MCF-7 cells transfected with pcDNA3-BCRP); test: Daunorubicin accumulation and retention by flow cytometry; type: cell-based, human
Method: (§1) The full-length BCRP cDNA was inserted into the multiple to cloning site of expression vector pcDNA3 (Invitrogen). Following subcloning of the pcDNA3-BCRP construct, DNA sequence analysis was performed to confirm that the insert in the clone that was chosen was in a sense orientation to the CMV promoter of the pcDNA3 vector. MCF-7 cells were transfected with pcDNA3-BCRP, using the calcium phosphate precipitation method (17), selected by culture with geneticin (G418, 1 mg/ml), then subclone by limiting dilution in 96 well flat-bottomed culture plates. Subclones were tested for expression of BCRP mRNA by Northern blot analysis, using radiolabeled Clone 8 cDNA as a probe (FIG. 4A). As a control, MCF-7 cells were also transfected with the empty pcDNA3 vector, then selected by growth in medium containing 1 mg/ml G418 (FIG. 4A).
Daunorubicin accumulation and retention was examined in the transfected cells by means of flow cytometry.

[3] = system: EPG85-257RDB; conditions: gastric; cited from earlier work
[4] = system: MCF-7/AdrVp; conditions: subline selected with doxorubicin in the presence of verapamil; cited from earlier work
[5] = system: MCF-7/BCRP transfectant clones 6 and 8; test: Sulforhodamine-B (SRB) cytotoxicity assay; type: cell-based, human; conditions: compared to clone 19, MCF-7 cells or empty vector-transfected controls
Method: as §1
The sensitivities of the various transfected sublines to chemotherapeutic agents were tested by the sulforhodamine-B (SRB) cytotoxicity assay (14). The LC50, defined as the concentration of drug that caused lethality to 50% of the cells, was calculated. From this, the “Fold of Resistance” (RF) was calculated by dividing the LC50 for a given drug against a transfected cell line by the LC50 of that drug against non-transfected MCF-7 cells. […] FIG. 5 contains the median LC50 values for multiple cytotoxicity experiments for all cell lines and drugs tested. […] The asterisk and solid line in FIG. 4D indicate MCF-7/W cells, the closed squares and dotted lines represent MCF-7/pcDNA3-BCRP clone 8 cells. The vertical bars in the figure represent the standard deviation of six replicate determinations.

[6] = system: EPP85-181RDB; conditions: pancreatic; cited from earlier work
[7] = system: MCF-7/Adr; conditions: breast; cited from earlier work
[8] = system: H69/AR; conditions: small cell lung; cited from earlier work
[9] = system: cells that overexpress Pgp or MRP; conditions: cited from earlier work
[10] = system: BCRP-transfected MCF-7 cells; test: FTC effects on BBR3390 accumulation and retention, flow cytometry; type: cell-based, human; conditions: 10 uM FTC
Method: MCF-7 cells transfected with either the pcDNA3 empty vector or pcDNA3 containing the full-length BCRP cDNA (transfectant clone 8) were cultured as monolayers in tissue culture flasks. The effects of FTC on the accumulation of the aza-anthrapyrazole BBR3390 were measured by exposing these cells to the fluorescent aza-anthrapyrazole BBR3390 (5 uM) in the presence or absence of 10 uM FTC for 60 minutes. Then, the cells were removed from the flasks by trypsinization, and intracellular BBR3390 content was measured by flow cytometry. The effects of FTC on BBR3390 retention were measured by exposing another set of cells (vector control and transfectant clone 8) to 5 uM BBR3390 with and without 10 uM FTC for 60 minutes, washing the cells free of drug, then reincubating the cells for an additional 30 minutes in fresh medium with and without FTC. Intracellular BBR3390 content was measured by flow cytometry. (See FIG. 10).

[11] = system: H209/V6; conditions: H209/V6, small cell lung; cited from earlier work
[12] = system: MCF-7/VP; conditions: breast; cited from earlier work
[13] = system: MCF-7/MTX; conditions: breast; cited from earlier work
[14] = system: EPP85-181RNOV; conditions: pancreatic; cited from earlier work
[15] = system: H209/MX4; conditions: H209/MX4, small cell lung; cited from earlier work
[16] = system: EPG85-257RNOV; conditions: gastric; cited from earlier work
[17] = system: MCF-7/MXRS250; conditions: MCF-7/MXRS250, breast; cited from earlier work
[18] = system: S1M1-3.2; conditions: S1M1-3.2, colon; cited from earlier work
[19] = system: EPF86-079RNOV; conditions: fibrosarcoma; cited from earlier work
[20] = system: MCF-7/MXRS600; conditions: MCF-7/MXRS600, breast; cited from earlier work
[21] = system: H209/MX2; conditions: H209/MX2, small cell lung; cited from earlier work
[22] = system: 8226/MR20; conditions: 8226/MR20, myeloma; cited from earlier work
[23] = system: HT29RNOV; conditions: colon; cited from earlier work
[24] = system: HL-60/MX2; conditions: HL-60/MX2, leukemia; cited from earlier work
[25] = system: MDA-MB-231RNOV; conditions: breast; cited from earlier work
[26] = system: MCF-7/MXPR; conditions: breast; cited from earlier work
[27] = system: MCF-7/Mitox; conditions: breast; cited from earlier work

In the case of rhodamine 123, the “intracellular accumulation compared to MCF-7 cells” value [1] is listed as “marked reduction”.
In the case of `COc1cccc2c1C(=O)c1c(O)c3c(c(O)c1C2=O)C[C@@](O)(C(C)=O)C[C@@H]3O[C@H]1C[C@H](N)[C@H](O)[C@H](C)O1` [daunorubicin], the “intracellular accumulation compared to MCF-7 cells” value [1] is listed as “marked reduction”, the “intracellular steady-state concentration of drug, of that attained in the vector control cells” value ([2]; MCF-7/BCRP clone 6 vs pcDNA3 vector control cells) is listed as ~50% and the “intracellular steady-state concentration of drug, of that attained in the vector control cells” value ([2]; MCF-7/BCRP clone 8 vs pcDNA3 vector control cells) is listed as “approximately 30%”. The “Fold resistance to selecting agent” value [3] was 1,857 fold, the “cross-resistance of MCF-7/AdrVp subline” value [4] was “marked cross-resistance” and the “resistance / sensitivity of BCRP-overexpressing clones 6 and 8 to chemotherapeutic agent” value (“resistance / sensitivity” below) [5] was “displayed resistance”. The “Fold resistance to selecting agent” value [6] was 846 fold.
For `COc1cccc2c1C(=O)c1c(O)c3c(c(O)c1C2=O)C[C@@](O)(C(=O)CO)C[C@@H]3O[C@H]1C[C@H](N)[C@H](O)[C@H](C)O1` [doxorubicin], the “Fold resistance to selecting agent” value [7] is listed as 192 fold, the “resistance / sensitivity” value [5] is listed as “displayed resistance” and the “Fold resistance to selecting agent” value [8] is listed as 100 fold.
For `N.N.[Cl][Pt][Cl]` [cisplatin], the “cross-resistance of MCF-7/AdrVp subline” value [4] is listed as “remains sensitive” and the “resistance / sensitivity” value [5] is listed as “remained relatively sensitive”.
For `COc1ccc2c3c([nH]c2c1)[C@H](C=C(C)C)N1C(=O)[C@@H]2CCCN2C(=O)[C@@H]1C3` [FTC, Fumitremorgin C], the reversal of resistance [9] is listed as “does not reverse resistance”, the “effect on accumulation of BBR 3390” value ([10]; 5 uM BBR3390, 60 minutes) is listed as “able to enhance the accumulation” and the “effect on efflux of BBR 3390” value ([10]; 5 uM BBR3390, 60 minutes then 30 minutes in fresh medium) is listed as “inhibit the efflux”.
For `CC(=O)O[C@H]1C(=O)[C@@]2(C)[C@H]([C@H](OC(=O)c3ccccc3)[C@]3(O)C[C@H](OC(=O)[C@H](O)[C@@H](NC(=O)c4ccccc4)c4ccccc4)C(C)=C1C3(C)C)[C@]1(OC(C)=O)CO[C@@H]1C[C@@H]2O` [paclitaxel], the “cross-resistance of MCF-7/AdrVp subline” value [4] is given as “remains sensitive” and the “resistance / sensitivity” value [5] is given as “remained relatively sensitive”.
For `COc1cc([C@@H]2c3cc4c(cc3[C@@H](O[C@@H]3O[C@@H]5CO[C@@H](C)O[C@H]5[C@H](O)[C@H]3O)[C@H]3COC(=O)[C@H]23)OCO4)cc(OC)c1O` [etoposide], the “Fold resistance to selecting agent” value [11] is given as 22 fold and the “Fold resistance to selecting agent” value [12] is given as 26 fold.
For `CN(Cc1cnc2nc(N)nc(N)c2n1)c1ccc(C(=O)N[C@@H](CCC(=O)O)C(=O)O)cc1` [methotrexate], the “Fold resistance to selecting agent” value [13] is given as 1,000 fold.
For `CC(=O)[C@]1(O)Cc2c(O)c3c(c(O)c2[C@@H](O[C@H]2C[C@H](N)[C@H](O)[C@H](C)O2)C1)C(=O)c1ccccc1C3=O` [idarubicin], the “cross-resistance of MCF-7/AdrVp subline” value [4] is given as “not” and the “resistance / sensitivity” value [5] is given as “remained relatively sensitive”.
For `O=C1c2c(O)ccc(O)c2C(=O)c2c(NCCNCCO)ccc(NCCNCCO)c21` [mitoxantrone], the “Fold resistance to selecting agent” value [14] is given as 27 fold, the “Fold resistance to selecting agent” value [15] is given as 4 fold and the “Fold resistance to selecting agent” value [16] is given as 457 fold. The “Fold resistance to selecting agent” value [17] was 4,600 fold, the “Fold resistance to selecting agent” value [18] was 1,435 fold and the “Fold resistance to selecting agent” value [19] was 7 fold. For the same compound, the “Fold resistance to selecting agent” value [20] was 7,450 fold, the “cross-resistance of MCF-7/AdrVp subline” value [4] was “marked cross-resistance” and the “Fold resistance to selecting agent” value [21] was 2 fold. For the same compound, the “Fold resistance to selecting agent” value [22] was 36 fold, the “Fold resistance to selecting agent” value [23] was 100 fold and the “Fold resistance to selecting agent” value [24] was 35 fold. For the same compound, the “resistance / sensitivity” value [5] was “displayed resistance; also recorded: greatest degree of resistance”, the “Fold resistance to selecting agent” value [25] was 93 fold and the “Fold resistance to selecting agent” value [26] was 270 fold. For the same compound, the “Fold resistance to selecting agent” value [27] was 1,206 fold.
In the case of `COc1cccc2c1C(=O)c1c(O)c3c(c(O)c1C2=O)CC(O)(C(=O)CO)CC3OC1CC(N2CCOCC2C#N)C(O)C(C)O1` (stereo not shown) [3′-deamino-3′[3-cyano-4-morpholinyl]doxorubicin], the “cross-resistance of MCF-7/AdrVp subline” value [4] is given as “marked cross-resistance”.
